The source made the active and inactive calls. The rule behind the calls is not given here.
Assays:
[1] = molecular target: Sigma non-opioid intracellular receptor 1 (Homo sapiens, UniProt Q99720); assay: Displacement of [3H](+)-pentazocine from human sigma 1 receptor transfected in human HEK293T cells assessed as inhibition constant by radioligand competition binding assay; format: cell-based
[2] = molecular target: Sigma intracellular receptor 2 (Homo sapiens, UniProt Q5BJF2); assay: Displacement of [3H][…]ditolylguanidine from human sigma 2 receptor transfected in human HEK293T cells assessed as inhibition constant by radioligand competition binding assay; format: cell-based
Chain of Sigma intracellular receptor 2 (Q5BJF2 whole entry): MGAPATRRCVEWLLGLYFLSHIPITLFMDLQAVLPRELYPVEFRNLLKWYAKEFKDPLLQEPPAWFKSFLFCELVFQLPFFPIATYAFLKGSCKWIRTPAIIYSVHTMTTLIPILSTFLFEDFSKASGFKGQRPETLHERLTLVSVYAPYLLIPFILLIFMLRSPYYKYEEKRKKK

[3] = test system: MIA PaCa-2; assay: cells; settings: Homo sapiens, MIA PaCa-2, 72 h
[4] = Metabolic stability in mouse liver microsomes assessed as half life at 10 uM measured upto 60 mins in presence of NADPH by LC-MS/MS analysis; format: ADME, Microsome; settings: 1 h
[5] = Metabolic stability in human liver microsomes assessed as half life at 10 uM measured upto 60 mins in presence of NADPH by LC-MS/MS analysis; format: ADME, Microsome; settings: for t1/2: microsomes, 1 h, 10 µM
[6] = test system: MIA PaCa-2; assay: Upregulation of GRP78 in human MIA PaCa-2 cells at 10 to 30 uM measured after 24 hrs by Western blot analysis; format: functional, cell-based; settings: dose 10-30 µM
[7] = Cytotoxicity against HFF-1 cells measured after 72 hrs by MTT assay; format: toxicity, cell-based; settings: human
[8] = Cytotoxicity against HEK293 cells measured after 72 hrs by MTT assay; format: toxicity, cell-based; settings: human
[9] = Cytotoxicity against HPDE cells measured after 72 hrs by MTT assay; format: toxicity, cell-based; settings: human
[10] = test system: MIA PaCa-2; assay: Antagonistic cytotoxicity against human MIA PaCa-2 cells at 0.001 to 0.1 uM measured after 7 days in presence of ammonium tetrathiomolybdate by crystal violet staining based analysis; format: functional, cell-based; settings: dose 0.001-0.1 µM, time 7.0 day
[11] = test system: MIA PaCa-2; assay: Synergistic cytotoxicity against human MIA PaCa-2 cells at 0.001 to 0.1 uM measured after 7 days in presence of copper chloride by crystal violet staining based analysis; format: functional, cell-based; settings: dose 0.001-0.1 µM, time 7.0 day
[12] = test system: MIA PaCa-2; assay: Inhibition of colony formation in human MIA PaCa-2 cells at 0.04 to 30 uM pretreated with ammonium tetrathiomolybdate for 4 hrs followed by compound addition and measured after 6 days; format: functional, cell-based; settings: dose 0.04-30 µM, time 6.0 day
[13] = test system: HCT-116; assay: Inhibition of colony formation in human HCT-116 cells at 0.04 to 30 uM pretreated with ammonium tetrathiomolybdate for 4 hrs followed by compound addition and measured after 6 days; format: functional, cell-based; settings: dose 0.04-30 µM, time 6.0 day
[14] = test system: PANC-1; assay: cells; settings: Homo sapiens, PANC-1, 72 h
[15] = test system: BXPC-3; assay: cells; settings: Homo sapiens, BXPC-3, 72 h
[16] = test system: Panc02; assay: cells; settings: Mus musculus, Panc02, 72 h
[17] = cells; settings: Mus musculus, KPC2, 72 h

Chain of Sigma non-opioid intracellular receptor 1 (Q99720 whole entry): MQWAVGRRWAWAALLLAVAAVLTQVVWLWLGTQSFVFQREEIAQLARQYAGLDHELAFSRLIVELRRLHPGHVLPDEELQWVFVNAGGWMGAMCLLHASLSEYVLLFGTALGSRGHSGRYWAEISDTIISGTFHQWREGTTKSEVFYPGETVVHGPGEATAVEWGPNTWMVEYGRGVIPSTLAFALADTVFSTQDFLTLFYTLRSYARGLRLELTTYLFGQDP

Ki [1] [µM]	Ki [2] [µM]	IC50 [3] [µM]	SMILES	also measured
0.083	0.012	4.9	CCN(CC)CCCC(C)Nc1cnc(C(=O)Nc2cccc3ccc(Cl)nc23)cn1 (stereo not given)	–
0.677	0.4	15.6	Cc1cc(NC(=O)c2cnc(NCCN3CCNCC3)cn2)c2ncccc2c1	–
0.196	0.022	3.7	CCN(CC)CCCC(C)Nc1cnc(C(=O)Nc2cccc3cccnc23)cn1 (stereo not given)	–
0.155	0.051	3.8	CCN(CC)CCCC(C)Nc1cnc(C(=O)Nc2cccc3cc(Cl)cnc23)cn1 (stereo not given)	–
0.059	0.02	3.4	CCN(CC)CCCC(C)Nc1cnc(C(=O)Nc2cccc3c(Cl)ccnc23)cn1 (stereo not given)	–
0.356	0.079	5.4	CCN(CC)CCCC(C)Nc1cnc(C(=O)Nc2ccc(Cl)c3ccc(OC)nc23)cn1 (stereo not given)	–
0.067	0.036	3.2	CCN(CC)CCCC(C)Nc1cnc(C(=O)Nc2cc(C)c(Cl)c3cccnc23)cn1 (stereo not given)	–
0.463	0.052	> 30	CCN(CC)CCCC(C)NCC(=O)Nc1cc(C)cc2cccnc12 (stereo not given)	–
2.29	3.77	> 30	O=C(Nc1cc(F)cc2cccnc12)c1cnc(NCCN2CCS(=O)(=O)CC2)cn1	–
0.137	0.013	2.3	CCN(CC)CCCC(C)Nc1cnc(C(=O)Nc2cc(OC)cc3cccnc23)cn1 (stereo not given)	–
0.317	0.04	6.8	CCN(CC)CCCC(C)Nc1cnc(C(=O)Nc2ccc(OC)c3cccnc23)cn1 (stereo not given)	–
0.188	0.038	3.8	CCN(CC)CCCC(C)Nc1ccc(S(=O)(=O)Nc2cc(F)cc3cccnc23)nc1 (stereo not given)	t1/2 [4]: 15 min; t1/2 [5]: 39.2 min
–	2.66	> 30	CCN(CC)CCCC(C)Nc1cnc(C(=O)Nc2c(C)ccc3cccnc23)cn1 (stereo not given)	–
–	–	> 30	CC(C)CS(=O)(=O)Nc1cnc(C(=O)Nc2cc(F)cc3cccnc23)cn1	–
0.208	0.165	2	O=C(Nc1cc(F)cc2cccnc12)c1cnc(NCCN2CCCC2)cn1	–
1.46	0.065	> 30	CCN(CC)CCCC(C)Nc1cnc(CNc2cc(F)cc3cccnc23)cn1 (stereo not given)	–
0.25	0.085	1.1	CCN(CC)CCCC(C)Nc1cnc(C(=O)Nc2cc(C)cc3cccnc23)cn1 (stereo not given)	t1/2 [4]: 21 min
0.336	0.134	6.5	Cc1cc(NC(=O)c2cnc(OC3CCNCC3)cn2)c2ncccc2c1	–
0.166	0.129	7.4	Cc1cc(NC(=O)c2cnc(N3CCN(CCN)CC3)cn2)c2ncccc2c1	–
0.159	0.071	9.5	CCN(CCO)CCCC(C)Nc1cnc(C(=O)Nc2cc(C)cc3cccnc23)cn1 (stereo not given)	–
0.122	0.028	3.9	CCN(CC)CCCC(C)Nc1cnc(C(=O)Nc2cc(F)c(Cl)c3cccnc23)cn1 (stereo not given)	–
0.11	0.105	2.4	CN(C)CCCNc1cnc(C(=O)Nc2cc(F)cc3cccnc23)cn1	–
0.233	0.044	9.9	CCN(CC)CCCC(C)Nc1cnc(C(=O)Nc2cccc3ccc(C)nc23)cn1 (stereo not given)	–
0.112	1.34	0.6	CN(C)CCOc1cnc(C(=O)Nc2cc(F)cc3cccnc23)cn1	–

Ki [1] [µM]	Ki [2] [µM]	IC50 [3] [µM]	SMILES	also measured
0.212	0.018	3	CCN(CC)CCCC(C)Nc1cnc(C(=O)Nc2ccc(F)c3cccnc23)cn1 (stereo not given)	–
–	–	–	Fc1ccc(-n2cc(CCCCN3CCC4(CC3)OCc3ccccc34)c3ccccc32)cc1	Activity [6]: Active
0.095	0.014	1.8	CCN(CC)CCCC(C)Nc1cnc(C(=O)Nc2cc(Cl)cc3cccnc23)cn1 (stereo not given)	–
–	1.63	> 30	CCN(CC)CCCC(C)Nc1cnc(C(=O)Nc2c(OC)ccc3cccnc23)cn1 (stereo not given)	–
0.159	0.032	1.5	CCN(CC)CCCC(C)Nc1nc(C(=O)Nc2cc(F)cc3cccnc23)cs1 (stereo not given)	t1/2 [4]: 3.3 min; t1/2 [5]: 23 min
–	–	20	O=C(CCNc1cnc(C(=O)Nc2cc(F)cc3cccnc23)cn1)NO	–
0.398	0.042	1.7	CCN(CC)CCCC(C)Nc1cnc(C(=O)Nc2ccc(C)c3cccnc23)cn1 (stereo not given)	–
–	–	–	O=C(Nc1cccc2cccnc12)c1cnccn1	IC50 at 72 h [7]: > 30 µM; IC50 at 72 h [8]: 0.2 µM; IC50 at 72 h [9]: 0.6 µM; Activity [10]: Active; Activity [11]: Active; inhibition [12]: inactive; inhibition [13]: inactive; IC50 [14]: 1.7 µM; IC50 [15]: 1.8 µM; IC50 [16]: 0.3 µM; IC50 [17]: 0.2 µM
0.071	0.027	3	CCN(CC)CCCC(C)Nc1cnc(C(=O)Nc2cc(C3CC3)cc3cccnc23)cn1 (stereo not given)	–
–	–	1.2	COCCNc1cnc(C(=O)Nc2cc(F)cc3cccnc23)cn1	–
–	–	–	O=C(CN1CCC(CN2Cc3ccccc3C2=O)CC1)c1ccc(F)cc1	Activity [6]: Active
0.385	0.155	4.9	CCN(CC)CCCC(C)Nc1cnc(C(=O)Nc2cc(C(F)(F)F)cc3cccnc23)cn1 (stereo not given)	–
0.132	0.07	2.9	CCN(CC)CCCC(C)Nc1cnc(C(=O)Nc2ccc(OC)c3ccc(OC)nc23)cn1 (stereo not given)	–
–	–	> 30	O=C(Nc1cc(F)cc2cccnc12)c1cnc(NS(=O)(=O)CCC(F)(F)F)cn1	–
0.627	0.471	1.4	CN(C)CCNc1cnc(C(=O)Nc2cc(F)cc3cccnc23)cn1	–
0.067	0.013	1.9	CCN(CC)CCCC(C)Nc1cnc(C(=O)Nc2cccc3ccc(OC)nc23)cn1 (stereo not given)	t1/2 [4]: 54 min; half-life at 10 µM ([5]; liver microsomes): > 60 min
–	–	2.6	CCCNc1cnc(C(=O)Nc2cc(F)cc3cccnc23)cn1	–
–	–	–	Nc1ccn([C@@H]2O[C@H](CO)[C@@H](O)C2(F)F)c(=O)n1 [GEMCITABINE]	IC50 at 72 h [8]: 0.1 µM; IC50 at 72 h [9]: 0.001 µM
1.27	0.458	7.9	CCN(CC)CCCC(C)Nc1cnc(C(=O)Nc2cc(O)cc3cccnc23)cn1 (stereo not given)	–
0.405	0.108	10.1	CCN(CC)CCCC(C)Nc1cnc(C(=O)Nc2cc(C#N)cc3cccnc23)cn1 (stereo not given)	–
0.508	2.15	0.6	Cc1cc(NC(=O)c2cnc(S(=O)(=O)NCCN(C)C)cn2)c2ncccc2c1	t1/2 [4]: 6 min
0.046	0.027	1.6	CCN(CC)CCCC(C)Nc1cnc(C(=O)Nc2cc(Br)cc3cccnc23)cn1 (stereo not given)	–
0.169	0.016	2.3	CCN(CC)CCCC(C)Nc1cnc(C(=O)Nc2cccc3cc(C)cnc23)cn1 (stereo not given)	–

Reference: ChEMBL document CHEMBL5316327, “Design and Synthesis of Orally Active Quinolyl Pyrazinamides as Sigma 2 Receptor Ligands for the Treatment of Pancreatic Cancer” (J Med Chem, 2023)
